These are literature values, as cited in patent US7288243B2, “Aerosol drug inhibition of lung metastases” (Research Development Foundation, priority 2002, dated 2007).

For this data set the following is noted: concurrent administration of cyclosporin; clinical studies.

For `CC(=O)O[C@H]1C(=O)[C@@]2(C)[C@H]([C@H](OC(=O)c3ccccc3)[C@]3(O)C[C@H](OC(=O)[C@H](O)[C@@H](NC(=O)c4ccccc4)c4ccccc4)C(C)=C1C3(C)C)[C@]1(OC(C)=O)CO[C@@H]1C[C@@H]2O` [paclitaxel], the “Increase of bioavailability of paclitaxel administered orally” value is recorded as 9 fold.
